How the values were obtained:
[1] = tested on: human Trefoil Factor 2 (hTFF2) gene; assay: hTFF2 gene reporter assay (luciferase) using pGL3-hTFF2pro•pWL-neo/MKN-45 #6-2 cell line; type: cell-based; details: test compound concentration 10^−6 M; 24 hours culture; luciferase activity as control % of dimethylsulfoxide-added wells (100%)
Experimental: Transcription promoting activity on human Trefoil Factor 2 (hTFF2) gene of test compounds was evaluated by means of an hTFF2 gene reporter assay.
(1) Preparation of hTFF2 Gene Reporter Vector pGL3-hTFF2pro
DNA was extracted from HeLa cells (CCL-2, DAINIPPON PHARMACEUTICAL CO., LTD.) using a deoxyribonucleic acid (DNA) extraction kit (DNeasy™ Tissue Kit, manufactured by QIAGEN). The hTFF2 promoter region was amplified using the extracted DNA as a template by means of the polymerase chain reaction (PCR). The oligomers 5′-[…]-3′ and 5′-[…]-3′ were selected as PCR primers to be amplified, based on the report by Beck et al. (Beck S., Sommer P., Blin N., Gott P., 5′-flanking motifs control cell-specific expression of trefoil factor genes (TFF), Int. J. Mol. Med. 2(3), 353-361 (1998)). Platinum® Pfx DNA polymerase was used as DNA polymerase. The PCR was performed under the conditions of denaturing for 30 seconds at 95° C., annealing for 30 seconds at 55° C. and extending for 75 seconds at 68° C., and the procedures were repeated for 32 cycles.
The PCR products were separated and purified by 1% agarose gel electrophoresis, and cloned to a pCR-BluntII-TOPO vector attached to a cloning kit (Zero Blunt® TOPO® PCR Cloning Kit, manufactured by Invitrogen Corporation). The produced plasmid pCR-Blunt-TFF2pro was introduced into E. coli for transformation (TOP 10 Ultracomp™ Cells, manufactured by Invitrogen Corporation), and transformant strain pCR-Blunt-TFF2pro/TOP10 was selectively cultured in LB agar medium containing 30 μg/ml of Zeocin (Zeocin, manufactured by Invitrogen Corporation). The pCR-Blunt-TFF2pro/TOP10 was subjected to shaking culture in 50 ml of LB medium containing 30 μg/ml of Zeocin at 37° C. over night, and a plasmid was prepared using a plasmid preparation kit (Concert™ High Purity Midiprep System, manufactured by GIBCO BRL).
The nucleotide sequence of the PCR product cloned to the plasmid pCR-Blunt-TFF2pro was determined. The determined nucleotide sequence was compared with the counterpart of hTFF2 promoter region reported in a gene bank (GenBank accession AB038162). The nucleotide sequence of the MluI-HindIII region cloned in pCR-Blunt-TFF2pro was identical to GenBank accession AB038162 (FIG. 1).
The underlined portions indicate the recognition sequence (ACGCGT) of the restriction enzyme MluI and the recognition sequence (AAGCTT) of the restriction enzyme HindIII. The nucleotide sequences of the MluI-HindIII region are identical between the hTFF2 promoter region reported in GenBank and the PCR product cloned to the plasmid pCR-Blunt-TFF2pro. […]

[2] = tested on: acetic acid-induced gastric ulcers; assay: Healing effects on rat models with acetic acid-induced gastric ulcers; type: in vivo; details: oral, once a day for 8 days, dose 10 mg/kg, ulcerated area vs vehicle (0.5% CMC)
Experimental: Healing Effects on Rat Models with Acetic Acid-Induced Gastric Ulcers
(1) Production of Gastric Ulcer by Acetic Acid
Rats were fasted from the previous day. A celiotomy was done in each rat under ether anesthesia, and the stomach was exteriorized. Subsequently, 20 μL of a 30% acetic acid solution was injected into the submucosa at the junction of the body of the glandular stomach and the pyloric antrum using a disposable syringe to produce a gastric ulcer.
(2) Test Compound Administration
Each test compound was suspended in a 0.5% carboxymethylcelullose (CMC) solution at concentrations of 0.75 or 2.5 mg/ml. The rats were orally administrated once a day for 8 days starting with the forth day from operation at doses of 3 or 10 mg/kg. A gastric tube and a syringe were used for the oral administration. […]
On the next day the vehicle and the test compound were finally administrated to the rats, the rats were sacrificed by exsanguination under anesthesia with ether, and each stomach was removed. The removed stomachs were fixed in 1% formalin for 15 minutes, dissected along the greater curvature of stomach to expose the ulcer, and the ulcerated area was measured. […]
The ulcerated area was measured under a stereo microscope (10×) with an ocular micrometer (1 mm^2/grid), and the percentage healing ratio was calculated. The percentage healing ratio was calculated by the following formula.

Row | melting point [°C] | Compound | TFF2 Production Promoting Activity [1] | Healing Ratio (%) [2] [%]
1 | 139.5 to 141 | COc1ccc(CC2SC(=S)NC2=O)c2c1N(CCC(C)C)C(=O)CC2 (stereo not drawn) [Example 1315, 8-methoxy-1-(3-methylbutyl)-5-(4-oxo-2-thioxothiazolidin-5-ylmethyl)-3,4-dihydro-1H-quinolin-2-one] | ++ (a TFF2 production promoting activity of 1000% or higher at a test compound concentration of 10^−6 M) | –
2 | 254 to 255 | COc1ccc(CC2SC(=O)NC2=O)c2ccc(=O)n(C)c12 (stereo not drawn) [Example 1, 5-(8-methoxy-1-methyl-2-oxo-1,2-dihydroquinolin-5-ylmethyl)thiazolidine-2,4-dione] | – | >20
3 | 193.1 to 195.5 | COC(=O)c1ccc(CN2C(=O)CCc3c(CC4SC(=O)NC4=O)ccc(OC)c32)cc1 (stereo not drawn) [Example 25, 5-[8-methoxy-1-(4-methoxycarbonylbenzyl)-2-oxo-1,2,3,4-tetrahydroquinolin-5-ylmethyl]thiazolidine-2,4-dione] | ++ (a TFF2 production promoting activity of 1000% or higher at a test compound concentration of 10^−6 M) | –

From patent publication US7777038B2, “Carbostyril compound” (Otsuka Pharmaceutical Co., Ltd., priority 2004, dated 2010)
